US4789661A, “De-(acetylglucosaminyl)-di(dehydro)-deoxy teicoplanin derivatives” (Gruppo Lepetit S.p.A., priority 1985, dated 1988)
In brackets after ≈: the same amount, converted by molar mass.

How the values were obtained:
E. Coli SKF 12140 = test: In vitro antimicrobial activity (MIC), standard dilution test; type: cell-based; settings: inoculum about 10^4 CFU/ml, 18-24 h at 37° C.
Protocol: (§1) Isosensitest broth (Oxoid) and Todd-Hewitt broth (Difco) are used for growing staphylococci and streptococci, respectively. Broth cultures are diluted so that the final inoculum is about 10^4 colony forming units/ml (CFU/ml).

P. vulgaris ATCC 881 = test: as above; type: cell-based; settings: inoculum about 10^4 CFU/ml, 18-24 h at 37° C.
Protocol: as §1

S. aureus ATCC 6538 = test: as above; type: cell-based; settings: inoculum about 10^4 CFU/ml, 18-24 h at 37° C.
Protocol: as §1

S. aureus TOUR = test: as above; type: cell-based; settings: inoculum about 10^4 CFU/ml, 18-24 h at 37° C.
Protocol: as §1

[1] = system: S. epidermidis ATCC 12228; test: as above; type: cell-based; settings: inoculum about 10^4 CFU/ml, 18-24 h at 37° C.
Protocol: as §1

S. faecalis ATCC 7080 = test: as above; type: cell-based; settings: inoculum about 10^4 CFU/ml, 18-24 h at 37° C.
Protocol: as §1

S. pneumoniae UC 41 = test: as above; type: cell-based; settings: inoculum about 10^4 CFU/ml, 18-24 h at 37° C.
Protocol: as §1

S. pyogenes C 203 = test: as above; type: cell-based; settings: inoculum about 10^4 CFU/ml, 18-24 h at 37° C.
Protocol: as §1

[2] = system: experimental infection in mice; test: Experimental infection in mice (V. Arioli et al.); type: in vivo
From the text: In addition to their antibacterial activity in vitro, the compounds of the invention show also antibacterial activity in in vivo experimetns.

[3] = Acid-base titration (pKMCS) in 2-methoxyethanol/water 4:1; type: physicochemical; settings: potentiometric; 2-methoxyethanol (Methyl Cellosolve)/water 4:1 (v/v)
Protocol: Acid-base titration (pKMCS) were carried out in 2-methoxyethanol (Methyl Cellosolve®) water 4:1 (v/v) solution, with 0.01 NaOH after addition of suitable amounts of 0.01N hcl. The equivalent weights (EW) given are corrected for the solvent content and the inorganic residue.

[4] = system: S. Simulans L 1142 (methicillin-resistant); test: MIC in microtiter against coagulase-negative staphylococci, clinical isolates; type: cell-based; settings: S. Simulans L 1142, methicillin-resistant clinical isolate, Iso-sensitest broth, approximately 10^4 CFU/ml
Protocol: (§2) In a representative experiment, compound III i.e. (35,52-di-dehydro-34-deoxy-teicoplanin aglycon) was tested against some clinically isolated coagulasenegative staphylococi. The results of the test, in comparison with teicoplanin, are reported below in Table VII, The MIC were determined in microtiter using Iso-sensitest broth (Oxoid Co.) and approximately 10^4 CFU/ml as the inoculum.

S. epidermidis L 1378 = test: as above; type: cell-based; settings: S. epidermidis L 1378 clinical isolate, Iso-sensitest broth, approximately 10^4 CFU/ml
Protocol: as §2

[5] = system: S. haemoliticus L 1520 (methicillin-resistant); test: as above; type: cell-based; settings: S. haemoliticus L 1520, methicillin-resistant clinical isolate, Iso-sensitest broth, approximately 10^4 CFU/ml
Protocol: as §2

S. hominis L 1070 = test: as above; type: cell-based; settings: S. hominis L 1070 clinical isolate, Iso-sensitest broth, approximately 10^4 CFU/ml
Protocol: as §2

[6] = system: S. simulans L 785 (methicillin-resistant); test: as above; type: cell-based; settings: S. simulans L 785, methicillin-resistant clinical isolate, Iso-sensitest broth, approximately 10^4 CFU/ml
Protocol: as §2

S. warneri L 1375 = test: as above; type: cell-based; settings: S. warneri L 1375 clinical isolate, Iso-sensitest broth, approximately 10^4 CFU/ml
Protocol: as §2

Row | Compound | MIC (E. Coli SKF 12140) [µg/mL] | MIC (P. vulgaris ATCC 881) [µg/mL] | MIC (S. aureus ATCC 6538) [µg/mL] | MIC (S. aureus TOUR) [µg/mL] | MIC [1] [µg/mL] | MIC (S. faecalis ATCC 7080) [µg/mL] | MIC (S. pneumoniae UC 41) [µg/mL] | MIC (S. pyogenes C 203) [µg/mL] | ED50 [2] [mg/kg] | pKmcs (COOH) [3] | pKmcs (NH2) [3] | MIC [4] [µg/mL] | MIC (S. epidermidis L 1378) [µg/mL] | MIC [5] [µg/mL] | MIC (S. hominis L 1070) [µg/mL] | MIC [6] [µg/mL] | MIC (S. warneri L 1375) [µg/mL]
1 | 42-α-D-mannosyl-56-N-acyl-β-D-glucosaminyl-35,52-didehydro-34-d eoxy-teicoplanin aglycon [Compound I] | > 128 | > 128 | 0.5 | 0.5 | 0.25 | 1 | 0.06 | 0.06 | 0.35 | 5.0 | 6.9 |  |  |  |  |  | 
2 | NC1C(=O)NC2Cc3ccc(c(Cl)c3)Oc3cc4cc(c3O)Oc3ccc(cc3Cl)C=C3NC(=O)C(NC(=O)C4NC(=O)C(NC2=O)c2cc(O)cc(c2)Oc2cc1ccc2O)c1ccc(O)c(c1)-c1c(O)cc(O)cc1C(C(=O)O)NC3=O (single isomer, unassigned) [Compound IV, (36,37-cis-51,52-trans)-34,35-didehydro-34-deoxy-teicoplanin-aglycon] | > 128 | 128 (≈ 108 µM) | 1 (≈ 0.847 µM) | 1 (≈ 0.847 µM) | 0.12 (≈ 0.102 µM) | 8 (≈ 6.77 µM) | 4 (≈ 3.39 µM) | 4 (≈ 3.39 µM) |  | 4.8 | 7.1 |  |  |  |  |  | 
3 | NC1C(=O)NC2Cc3ccc(c(Cl)c3)Oc3cc4cc(c3O)Oc3ccc(cc3Cl)C=C3NC(=O)C(NC(=O)C4NC(=O)C(NC2=O)c2cc(O)cc(c2)Oc2cc1ccc2O)c1ccc(O)c(c1)-c1c(O)cc(O)cc1C(C(=O)O)NC3=O (single isomer, unassigned) [Compound V, (36,37-trans-51,52-trans)-34,35-didehydro-34-deoxy-teicoplanin-aglycon] | > 128 | > 128 | 2 (≈ 1.69 µM) | 4 (≈ 3.39 µM) | 0.4 (≈ 0.339 µM) | 16 (≈ 13.5 µM) | 8 (≈ 6.77 µM) | 8 (≈ 6.77 µM) |  |  |  |  |  |  |  |  | 
4 | NC1C(=O)NC2Cc3ccc(c(Cl)c3)Oc3cc4cc(c3O)Oc3ccc(cc3Cl)CC3=NC(=O)C(NC(=O)C4NC(=O)C(NC2=O)c2cc(O)cc(c2)Oc2cc1ccc2O)c1ccc(O)c(c1)-c1c(O[C@H]2O[C@H](CO)[C@@H](O)[C@H](O)[C@@H]2O)cc(O)cc1C(C(=O)O)NC3=O (stereo partly drawn) [Compound II, 42-α-D-mannosyl-35,52-didehydro-34-deoxy-teicoplanin aglycon] | > 128 | > 128 | 0.25 (≈ 0.186 µM) | 0.25 (≈ 0.186 µM) | 0.5 (≈ 0.372 µM) | 1 (≈ 0.745 µM) | 2 (≈ 1.49 µM) | 2 (≈ 1.49 µM) | 5.8 | 4.8 | 6.9 |  |  |  |  |  | 
5 | NC1C(=O)NC2Cc3ccc(c(Cl)c3)Oc3cc4cc(c3O)Oc3ccc(cc3Cl)CC3=NC(=O)C(NC(=O)C4NC(=O)C(NC2=O)c2cc(O)cc(c2)Oc2cc1ccc2O)c1ccc(O)c(c1)-c1c(O)cc(O)cc1C(C(=O)O)NC3=O (centres unmarked) [Compound III, 35,52-didehydro-34-deoxy-teicoplanin aglycon] | > 128 | > 128 | 0.25 (≈ 0.212 µM) | 0.25 (≈ 0.212 µM) | 0.12 (≈ 0.102 µM) | 1 (≈ 0.847 µM) | 1 (≈ 0.847 µM) | 1 (≈ 0.847 µM) | 5 |  |  | 0.125 (≈ 0.106 µM) | 0.125 (≈ 0.106 µM) | 0.5 (≈ 0.423 µM) | 0.125 (≈ 0.106 µM) | 0.125 (≈ 0.106 µM) | 1 (≈ 0.847 µM)
6 | N[C@H]1C(=O)N[C@@H]2Cc3ccc(c(Cl)c3)Oc3cc4cc(c3O)Oc3ccc(cc3Cl)[C@@H](O)[C@@H]3NC(=O)[C@H](NC(=O)[C@@H]4NC(=O)[C@@H](NC2=O)c2cc(O)cc(c2)Oc2cc1ccc2O)c1ccc(O)c(c1)-c1c(O)cc(O)cc1[C@@H](C(=O)O)NC3=O [deglucoteicoplanin, reference compound] |  |  |  |  |  |  |  |  |  | 4.9 | 6.9 |  |  |  |  |  | 
7 | teicoplanin A2 [reference compound] |  |  |  |  |  |  |  |  |  | 5.0 | 7.1 |  |  |  |  |  | 
8 | teicoplanin [reference compound] |  |  |  |  |  |  |  |  |  |  |  | 0.125 | 0.5 | 4 | 0.25 | 0.25 | 2
